Assay results from ChEMBL document CHEMBL1201862, “PubChem BioAssay data set” (2004).
Activity calls are given as the source filed them.

Legend:
[1] = inhibitors of clade B AD8 Env fusion, dose response, cell-based, cherry-pick (AID 652062); format: functional;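 also: luciferase signal from cell-cell fusion driven by HIV-1 clade B AD8 Env; potency is for inhibitors of fusion seen as a drop in luminescence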
[2] = NIH:OVCAR-3 ovarian cancer cell cytotoxicity, dose response, PAX8 inhibitor project, plate reader, dry powder samples (AID 743044); format: functional, cell-based
[3] = non-specific cell cytotoxicity, dose response, cytotoxicity control for PAX8 inhibitor project, plate reader, dry powder samples (AID 743021); format: functional, cell-based
Paired box protein Pax-8 = Paired box protein Pax-8 (Homo sapiens, UniProt Q06710); assay: inhibitors of PAX8-driven TPO luciferase reporter, dose response, RMG-I cells, cherry-pick (AID 687027); format: functional, cell-based;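 also: luciferase reporter driven by Pax8 target thyroperoxidase promoter measured by SteadyGlo luminescence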
Paired box protein Pax-8, sequence (Q06710 whole entry, the tested form may be a part): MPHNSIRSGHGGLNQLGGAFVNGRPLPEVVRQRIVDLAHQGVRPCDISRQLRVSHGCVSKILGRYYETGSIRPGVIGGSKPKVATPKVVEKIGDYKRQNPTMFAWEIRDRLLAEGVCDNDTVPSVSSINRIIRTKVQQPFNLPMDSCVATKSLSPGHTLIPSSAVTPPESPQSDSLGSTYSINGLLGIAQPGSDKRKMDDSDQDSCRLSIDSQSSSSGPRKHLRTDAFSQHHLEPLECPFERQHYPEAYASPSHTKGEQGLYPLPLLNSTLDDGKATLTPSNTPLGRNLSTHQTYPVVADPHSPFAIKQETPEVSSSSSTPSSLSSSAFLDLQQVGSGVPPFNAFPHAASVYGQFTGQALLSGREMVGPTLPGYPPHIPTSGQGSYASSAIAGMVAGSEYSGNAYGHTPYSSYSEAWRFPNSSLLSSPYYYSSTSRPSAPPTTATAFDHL

[4] = inhibitors of HIV Env-driven cell fusion, dose response, cherry-pick (AID 652057); format: functional, cell-based
[5] = biological target: T1, 1-phosphatidylinositol 4,5-bisphosphate phosphodiesterase gamma-1 (Homo sapiens, UniProt P19174); assay: Counterscreen for inhibitors of phospholipase C isozymes (PLC-B3): Fluorescence-based biochemical high throughput dose response assay to identify inhibitors of phospholipase C isozymes (PLC-gamma1).
T1 sequence (P19174 whole entry): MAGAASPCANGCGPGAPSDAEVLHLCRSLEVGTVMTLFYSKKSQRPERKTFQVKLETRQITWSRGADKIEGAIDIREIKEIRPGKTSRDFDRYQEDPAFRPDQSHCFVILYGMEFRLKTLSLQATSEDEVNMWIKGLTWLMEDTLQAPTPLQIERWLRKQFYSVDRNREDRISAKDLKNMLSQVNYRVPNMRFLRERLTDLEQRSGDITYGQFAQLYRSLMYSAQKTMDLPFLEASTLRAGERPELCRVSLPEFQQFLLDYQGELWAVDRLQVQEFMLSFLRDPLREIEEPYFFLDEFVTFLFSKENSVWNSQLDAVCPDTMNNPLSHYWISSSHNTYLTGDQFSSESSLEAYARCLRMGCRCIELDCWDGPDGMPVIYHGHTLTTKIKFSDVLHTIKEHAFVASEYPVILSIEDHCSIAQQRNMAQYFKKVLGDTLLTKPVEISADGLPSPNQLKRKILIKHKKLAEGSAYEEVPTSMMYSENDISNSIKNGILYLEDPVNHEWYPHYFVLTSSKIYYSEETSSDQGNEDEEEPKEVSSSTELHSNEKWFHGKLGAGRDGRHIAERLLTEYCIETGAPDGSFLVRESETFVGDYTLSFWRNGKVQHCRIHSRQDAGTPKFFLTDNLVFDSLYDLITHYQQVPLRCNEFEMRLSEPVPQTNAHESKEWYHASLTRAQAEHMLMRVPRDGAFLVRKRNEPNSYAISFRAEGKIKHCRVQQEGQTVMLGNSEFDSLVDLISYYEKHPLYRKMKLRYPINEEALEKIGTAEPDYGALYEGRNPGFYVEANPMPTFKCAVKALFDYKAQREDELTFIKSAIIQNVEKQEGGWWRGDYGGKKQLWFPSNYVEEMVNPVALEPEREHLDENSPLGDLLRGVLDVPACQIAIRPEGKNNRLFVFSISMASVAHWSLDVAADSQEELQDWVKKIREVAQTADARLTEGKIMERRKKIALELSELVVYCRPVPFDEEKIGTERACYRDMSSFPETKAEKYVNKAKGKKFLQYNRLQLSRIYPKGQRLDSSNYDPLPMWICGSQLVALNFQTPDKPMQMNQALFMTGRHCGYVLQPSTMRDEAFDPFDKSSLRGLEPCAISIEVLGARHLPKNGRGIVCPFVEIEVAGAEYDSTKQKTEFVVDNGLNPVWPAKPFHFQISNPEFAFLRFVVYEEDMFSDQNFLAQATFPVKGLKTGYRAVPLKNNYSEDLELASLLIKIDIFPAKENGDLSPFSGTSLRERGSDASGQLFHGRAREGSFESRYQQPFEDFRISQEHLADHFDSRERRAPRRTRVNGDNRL

[6] = biological target: T2, 1-phosphatidylinositol 4,5-bisphosphate phosphodiesterase beta-3 (Homo sapiens, UniProt Q01970); assay: Fluorescence-based biochemical high throughput dose response assay to identify inhibitors of phospholipase C isozymes (PLC-B3).
T2 sequence (Q01970 whole entry): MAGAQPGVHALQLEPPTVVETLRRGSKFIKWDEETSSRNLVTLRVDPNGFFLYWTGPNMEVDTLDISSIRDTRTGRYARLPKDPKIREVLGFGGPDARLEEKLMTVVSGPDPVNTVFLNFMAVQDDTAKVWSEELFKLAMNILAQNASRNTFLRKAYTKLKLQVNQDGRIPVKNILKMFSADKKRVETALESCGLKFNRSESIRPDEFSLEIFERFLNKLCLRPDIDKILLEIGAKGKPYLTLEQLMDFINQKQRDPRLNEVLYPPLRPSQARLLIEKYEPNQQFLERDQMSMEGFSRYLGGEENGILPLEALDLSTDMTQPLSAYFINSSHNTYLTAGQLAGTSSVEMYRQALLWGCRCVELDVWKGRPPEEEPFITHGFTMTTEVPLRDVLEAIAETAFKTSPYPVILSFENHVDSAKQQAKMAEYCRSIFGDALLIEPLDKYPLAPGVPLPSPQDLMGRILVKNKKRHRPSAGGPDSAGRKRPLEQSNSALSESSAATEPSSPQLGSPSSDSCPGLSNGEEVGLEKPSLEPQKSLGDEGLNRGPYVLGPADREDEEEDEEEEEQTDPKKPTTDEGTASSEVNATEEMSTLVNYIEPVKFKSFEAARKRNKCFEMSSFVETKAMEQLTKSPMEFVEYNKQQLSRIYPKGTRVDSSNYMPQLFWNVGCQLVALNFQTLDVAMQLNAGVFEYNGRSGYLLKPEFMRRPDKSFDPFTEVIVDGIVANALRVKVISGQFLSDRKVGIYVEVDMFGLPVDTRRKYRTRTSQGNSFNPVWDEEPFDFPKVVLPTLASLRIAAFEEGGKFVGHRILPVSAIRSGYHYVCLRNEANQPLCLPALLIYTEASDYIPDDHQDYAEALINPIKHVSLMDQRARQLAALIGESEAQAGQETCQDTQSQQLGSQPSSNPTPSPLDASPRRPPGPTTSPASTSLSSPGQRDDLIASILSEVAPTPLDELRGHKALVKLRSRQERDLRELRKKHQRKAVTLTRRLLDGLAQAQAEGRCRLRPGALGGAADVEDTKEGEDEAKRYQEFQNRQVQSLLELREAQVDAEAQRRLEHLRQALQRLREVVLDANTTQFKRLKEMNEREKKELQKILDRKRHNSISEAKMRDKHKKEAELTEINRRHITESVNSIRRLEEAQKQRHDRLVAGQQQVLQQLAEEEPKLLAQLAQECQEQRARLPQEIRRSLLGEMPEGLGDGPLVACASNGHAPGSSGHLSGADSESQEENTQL

[7] = biological target: T3, Bifunctional protein GlmU (Mycobacterium tuberculosis, UniProt P9WMN3); assay: Inhibitors of Mycobacterial Glucosamine-1-phosphate acetyl transferase (GlmU). Secondary screen.; parameters: species or system Mycobacterium tuberculosis H37Rv
T3 sequence (P9WMN3 whole entry): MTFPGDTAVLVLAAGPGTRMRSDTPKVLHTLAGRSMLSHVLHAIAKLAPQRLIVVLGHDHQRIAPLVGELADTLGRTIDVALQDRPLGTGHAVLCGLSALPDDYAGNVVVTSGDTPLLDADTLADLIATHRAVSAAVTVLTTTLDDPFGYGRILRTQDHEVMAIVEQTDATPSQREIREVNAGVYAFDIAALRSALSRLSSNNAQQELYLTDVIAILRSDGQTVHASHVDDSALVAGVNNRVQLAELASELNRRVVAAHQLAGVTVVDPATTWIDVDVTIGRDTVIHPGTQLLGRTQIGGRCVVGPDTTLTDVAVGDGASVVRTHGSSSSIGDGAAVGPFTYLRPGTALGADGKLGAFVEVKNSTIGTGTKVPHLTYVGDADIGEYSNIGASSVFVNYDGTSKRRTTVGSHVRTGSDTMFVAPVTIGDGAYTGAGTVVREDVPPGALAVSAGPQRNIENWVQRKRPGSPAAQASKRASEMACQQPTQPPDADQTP

[8] = HeLa 2N DNA content increase, dose response, cell-based, IC50 (AID 1117349); format: functional
[9] = RKO cell viability reduction, dose response, CellTiter-Glo luminescence (AID 1117322); format: functional
[10] = CellTiter-Glo luminescent dose response of DLD-1 viability loss (AID 1117352); format: functional
[11] = cytotoxicity toward HCT116 cells – cell-based, CellTiter-Glo luminescence, IC50, dose response (AID 1117332); format: functional; details: HCT-116
[12] = HeLa 4N DNA content increase, dose response, cell-based, IC50 (AID 1117351); format: functional
[13] = HCT116 cell viability decrease, GSK3B pretreatment – CellTiter-Glo, IC50, dose response (AID 1117339); format: functional; details: HCT-116
[14] = SNU-C1 cell viability reduction, dose response, CellTiter-Glo luminescence (AID 1117323); format: functional, cell-based
BJ [15] = assay: cytotoxicity toward BJ-TERT fibroblasts, dose response, cell-based, RAS-independent, luminescence (AID 1933); format: functional; details: Homo sapiens
BJ [16] = assay: cells; format: functional, cell-based; details: Homo sapiens
[17] = cytotoxicity toward HT-29 cells – cell-based, CellTiter-Glo luminescence, IC50, dose response (AID 1117330); format: functional
BJ [18] = assay: cytotoxicity toward Ras-transformed BJeLR fibroblasts, dose response, cell-based, alamar blue fluorescence, cherrypicked samples (AID 2631); format: functional; details: Homo sapiens;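 also: confirmatory dose-response assay in RAS-dependent BJ fibroblasts engineered with TERT, LT and ST, with cytotoxicity read by fluorescence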
BJ [19] = assay: cytotoxicity toward BJ-TERT-LT-ST fibroblasts, dose response, cell-based, RAS-independent, luminescence (AID 1935); format: functional; details: Homo sapiens;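 also: BJ fibroblasts immortalized with TERT plus LT and ST oncogenes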
[20] = cytotoxicity toward DRD oncogenic fibroblasts, dose response, cell-based, non-viral oncogenic, luminescence (AID 1934); format: functional; details: Homo sapiens

For `COc1ccccc1C#Cc1ccc2c(c1)O[C@H](CN(C)Cc1ccncc1)[C@@H](C)CN([C@@H](C)CO)S2(=O)=O`, the AC50 [1] was 25.9 µM (active), the AC50 [2] was 57.8 µM (active) and the AC50 [3] was 61.5 µM (active). For the same compound, the AC50 (Paired box protein Pax-8) was 10.9 µM (active) and the AC50 [4] was 38.1 µM (active).
With `CCNC(=O)C[C@H]1CC[C@H]2[C@@H](COc3ccc(NC(=O)c4ccc5c(c4)OCO5)cc3C(=O)N2C)O1` the IC50 [5] was 47.8 µM (inactive) and the IC50 [6] was 45.1 µM (inactive).
In the case of `Cc1ccc(OCC(=O)N/N=C\c2ccc(-c3cccc(C(=O)O)c3)o2)c(C)c1`, the IC50 [7] is reported as 137 µM (active).
In the case of `Cn1cnc([N+](=O)[O-])c1Sc1ncnc2[nH]cnc12` [AZATHIOPRINE], the IC50 [8] is reported as > 10 µM (inactive), the IC50 [9] is reported as 2.66 µM (active) and the IC50 [10] is reported as 0.364 µM (active). The IC50 [11] was 0.207 µM (active), the IC50 [12] was > 10 µM (inactive) and the IC50 [13] was 0.623 µM (active). For the same compound, the IC50 [14] was > 20 µM (inactive), the EC50 (BJ [15]) was > 150 µM (not active) and the EC50 (BJ [16]) was 5.04 µM (inconclusive). The IC50 [17] was > 20 µM (inactive), the EC50 (BJ [18]) was > 133 µM (inactive) and the EC50 (BJ [19]) was > 150 µM (not active). For the same compound, the EC50 [20] was 2.9 µM (active).
With `CCCCCCCCCCCCNCCNCCNCC(=O)O` [DODICIN] the IC50 [8] was > 10 µM (inactive) and the IC50 [12] was > 10 µM (inactive).
